Results published in paper PMC9298260, “An Immunomodulatory Peptide Dendrimer Inspired from Glatiramer Acetate” (Angewandte Chemie (International Ed. in English), 2021).

How the values were obtained:
Test in all cases: IL-1Ra release from human primary monocytes, immunoassay (ELISA) of supernatants
Assay type in all cases: cell-based
[1] = tested on: IL-1Ra release from human primary monocytes; parameters: key: +: Ability to induce IL-1Ra on primary monocytes after 48 h of incubation; Ability to induce IL-1Ra on primary monocytes after 48 h of incubation; conditions: for IL-1Ra: ability to induce IL-1Ra on primary monocytes after 48 h of incubation, class + / -; for Act. (ability to induce IL-1Ra): primary monocytes, 48 h
Description: (§1) As an activity screen we focused on interleukin‐1 receptor antagonist (IL‐1Ra), a cytokine released by circulating antigen presenting cells (APC) in response to GA.[15, 35] […] To test our dendrimers, we quantified by immunoassay the release of IL‐1Ra from human primary monocytes of healthy donors, an easily accessible type of APC, stimulated or not by addition of lipopolysaccharide (LPS), which in our hands provided a reliable read‐out.[15] We tested at defined weight/volume (25 and 50 μg mL^−1 compound as typically reported for GA)[15, 35] to account for a possible activity increase with MW as often observed with dendrimers when using molarity. In the initial screen the levels of secreted IL‐1Ra remained below 1 ng mL^−1 for all the smaller test compounds as well as with the linear peptide analogs of GA.
(§2) Figure 2 Cytokine level of IL‐1Ra in supernatants of primary human monocytes of healthy donors treated with peptide dendrimers, evaluated by ELISA (bars, left vertical axis) and mRNA levels (▴, right vertical axis). […] For mRNA levels evaluation, 2×10^6 cells 3 mL^−1 in 6 well plates were incubated with 50 μg mL^−1 dendrimer or GA for 18 h. […]
(§3) Enzyme-linked immunosorbent assay (ELISA)
(§4) Monocytes (5×10^4 cells/200 μL well; 96-well plates) were preincubated for 1 h with or without compounds in RPMI-1640 medium supplemented with 10% heat-inactivated FBS, 50 μg/mL streptomycin, 50 U/mL penicillin, 2 mM L-glutamine, and 5 μg/mL polymyxin B sulfate and then cultured for 48 h in the presence or absence of LPS (100 ng/mL) (2). The production of IL-1Ra was measured in culture supernatants by commercially available enzyme immunoassay according to manufacture protocol.
(§5) Figure S2. Cytokine level of IL-1Ra in supernatants of monocytes for active dendrimers and analogues evaluated by ELISA assay on primary human monocytes of healthy donors. 5×10^4 cells/200 µL in 96 well plates, were incubated with dendrimers or GA as a control for 48 h in presence or absence of LPS (100 ng/mL), in a range of concentrations (50-25 µg/mL) (mean ± SD, n = 2 different experiments). The results are present as the difference between each sample and the non-treated sample to take into account the difference between base line for each donor.
(§6) Figure S3. Cytokine level of IL-1Ra in supernatants of monocytes for active dendrimers and […]
(§7) presence or absence of LPS (100 ng/mL), in a range of concentrations (100-12.5 µg/mL) (mean ± SD, n = 3 different experiments). […]

[2] = tested on: IL-1Ra release from human primary monocytes; conditions: primary human monocytes of healthy donors, 25 and 50 μg mL^−1, 48 h
Description: as §1, §2, §3, §4, §5, §6, §7

[3] = tested on: IL-1Ra release from human primary monocytes; parameters: key: +: Ability to induce IL‐1Ra on primary monocytes after 48 h of incubation in the presence of 25–50 μg mL^−1 compound; Ability to induce IL‐1Ra on primary monocytes after 48 h of incubation in the presence of 25–50 μg mL^−1 compound; conditions: for Act. (ability to induce IL-1Ra): Table 1, 48 h, 25–50 μg mL^−1 compound; for IL-1Ra: 48 h
Description: as §1, §2, §3, §4, §5, §6, §7

Row | Substance | IL-1Ra [1] | IL-1Ra release activity (in words) [2] | Act. (ability to induce IL-1Ra) [3] | IL-1Ra ([3]; supplement s001.csv) | IL-1Ra ([3]; supplement s003.zip SMILES csv) | Act. (ability to induce IL-1Ra) ([1]; Table S2 analogs of 1 and 4) | Act. (ability to induce IL-1Ra) ([1]; Table S1 initial library)
1 | (AK)4(KAEAKAKE)2KKEYEYC(Coumarin)A-NH2 [26Coum] | - |  |  |  |  |  | 
2 | (AK)4(KAEAKAKE)2KKEYEYCA-NH2 [compound 26] | - |  |  |  |  |  | 
3 | (AK)8(KAK)4(KEKA)2KAKEAYCA-NH2 [compound 34] | + | preserved | + | + | + | + | 
4 | (AK)8(KAKAKY)4(KAKEYEY)2KAKEYEY-NH2 [compound 5] | - |  | − |  |  |  | -
5 | (AcAKA)4(KEK)2KYEY-OH [Ac11] | - |  |  |  |  |  | -
6 | (AcAKA)4(KEY)2KYKK-NH2 [Ac15] | - |  |  |  |  |  | -
7 | (AcAKA)4(KKEY)2KE-OH [Ac10] | - |  |  |  |  |  | -
8 | (AcAKA)8(KYEK)4(KEKA)2KAKY-OH [Ac3] | - |  |  |  |  |  | -
9 | (AcAKE)4(KAYA)2KKKK-NH2 [Ac16] | - |  |  |  |  |  | -
10 | (AcAKE)4(KKAY)2KYKY-NH2 [Ac22] | - |  |  |  |  |  | 
11 | (AcAYK)4(KE)2KKAA-OH [Ac9] | - |  |  |  |  |  | -
12 | (AcKA)8(KAK)4(KEKA)2KAKEAYCA-NH2 [Ac1] | - | abolished | − |  |  |  | -
13 | (AcKA)8(KKKAK)4(KEKA)2KAKEAYCA-NH2 [Ac36] | + | preserved | + | + | + | + | 
14 | (AcKAA)4(KYYE)2KAY-NH2 [Ac19] | - |  |  |  |  |  | 
15 | (AcKAE)4(KAEK)2KYYA-OH [Ac18] | - |  |  |  |  |  | -
16 | (AcKAK)4(KAEY)2KAEA-OH [Ac20] | - |  |  |  |  |  | 
17 | (AcKEAKY)4(KKYEA)2KEKAYKA-NH2 [Ac27] | - |  |  |  |  |  | 
18 | (AcKYA)4(KEA)2KKKA-OH [Ac14] | - |  |  |  |  |  | -
19 | (ClAcAKA)4(KEK)2KYEY-OH [ClAc11] | - |  |  |  |  |  | -
20 | (ClAcAKA)4(KKEY)2KE-OH [ClAc10] | - |  |  |  |  |  | -
21 | (ClAcAKA)8(KYEK)4(KEKA)2KAKY-OH [ClAc3] | - |  |  |  |  |  | -
22 | (ClAcAKE)4(KKAY)2KYKY-NH2 [ClAc22] | - |  |  |  |  |  | 
23 | (ClAcK)4(KAYE)2KAKYAEA-NH2) [ClAc13] | - |  |  |  |  |  | -
24 | (ClAcK)4(KEAKAKEY)2KAKEYEY-OH [ClAc25] | - |  |  |  |  |  | 

Row | Substance | IL-1Ra [1] | IL-1Ra release activity (in words) [2] | Act. (ability to induce IL-1Ra) [3] | IL-1Ra ([3]; supplement s001.csv) | IL-1Ra ([3]; supplement s003.zip SMILES csv) | Act. (ability to induce IL-1Ra) ([1]; Table S2 analogs of 1 and 4) | Act. (ability to induce IL-1Ra) ([1]; Table S1 initial library)
25 | (ClAcKA)4(KAYE)2KK-OH [ClAc6] | - |  |  |  |  |  | -
26 | (ClAcKA)4(KEYA)2KKAK-OH [ClAc7] | - |  |  |  |  |  | -
27 | (ClAcKAA)4(KYYE)2KAY-NH2 [AcCl19] | - |  |  |  |  |  | 
28 | (ClAcKAE)4(KAEK)2KYYA-OH [ClAc18] | - |  |  |  |  |  | -
29 | (ClAcKEAKY)4(KKYEA)2KEKAYKA-NH2 [ClAc27] | - |  |  |  |  |  | 
30 | (ClAcKYA)4(KEA)2KKKA-OH [ClAc14] | - |  |  |  |  |  | -
31 | (FumAKA)4(KEY)2KYKK-NH2 [Fum15] | - |  |  |  |  |  | -
32 | (FumAKE)4(KAYA)2KKKK-NH2 [Fum16] | - |  |  |  |  |  | -
33 | (FumKA)8(KAK)4(KEKA)2KAKEAYCA-NH2 [Fum1] | - | abolished |  |  |  |  | -
34 | (FumKA)8(KKAKE)4(KYKAKA)2KAYKKA-OH [Fum4] | - | abolished |  |  |  |  | -
35 | (FumKA)8(KKKAK)4(KEKA)2KAKEAYCA-NH2 [Fum36] | + | preserved | + | + | + | + | 
36 | (K)4(KAYAEY)2KAKAEYA-NH2 [compound 17] | - |  |  |  |  |  | -
37 | (KA)8(KAK)4(KEKA)2KAKEAYC(Fluo)A-NH2 [1Fl, analog of 1 bearing a fluorescein label at the dendrimer core] | + |  | + | + | + | + | 
38 | (KA)8(KAK)4(KEKA)2KAKEAYCA-NH2 [sr-1] | + | as active as the pure L‐enantiomers | + | + | + | + | 
39 | (KA)8(KAK)4(KEKA)2KAKEAYCA-NH2)2 (disulfide) [1-1, disulfide bridged dimer of 1] | + | active | + | + | + | + | 
40 | (KA)8(KKAKE)4(KYKAKA)2KAYKKA-OH [sr-4] | + | as active as the pure L‐enantiomers | + | + | + | + | 
41 | (KA)8(KKKAK)4(KEKA)2KAKEAYCA-NH2 [compound 36] | - | preserved | + | + |  | + | 
42 | (KAA)4(KEY)2KAKEYEYA-NH2 [compound 24] | - |  |  |  |  |  | 
43 | (KAA)8(KKAKAK)4(KAAKKY)2KEKAKCA-OH [compound 30] | - |  |  |  |  |  | 
44 | (KAEKAYA)4(KEKYAKA)2KEKYKA-NH2 [compound 2] | - |  | − |  |  |  | -
45 | (KAK)4(KEKA)2KAKEAYCA-NH2 [compound 33] | - |  | − |  |  | - | 
46 | (KK)8(KAK)4(KEKA)2KAKEAYCA-NH2 [compound 35] | + | preserved | + | + | + | + | 
47 | (KYA)4(KAE)2KAEYKCA-NH2 [compound 23] | - |  |  |  |  |  | 
48 | (YKAKAKY)4(KEAKAKY)2KAKEYEY-OH [compound 29] | - |  |  |  |  |  | 
